pIC50: −log10 of the molar value. Bounds are passed on as bounds.

In patent US8648066B2 (Exelixis, Inc., priority 2009, dated 2014) one finds IC50 data, which are given here for 25 compounds.

The target in the assay is mTOR/GbL/Raptor (mTORC1) (Homo sapiens, UniProt P42345). Briefly: mTOR/GbL/Raptor (mTORC1) ELISA assay. Format: biochemical. The conditions noted are these: phosphorylation of 4E-BP1; 0.2 nM mTORC1, 10 μM ATP; read-out: IC50 in this assay (mTORC1 ELISA). In outline:
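ELISA read-out: phospho-4E-BP1 captured on Ni-chelate plates and detected with anti-phospho antibody plus HRP-anti-IgG luminescence. The kinase step ran 120 min at ambient temperature with 0.2 nM human mTORC1, 10 µM ATP, 50 nM His-4E-BP1, 10 mM MnCl2, pH 7.2 HEPES.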
(ELISA stands for enzyme-linked immunosorbent assay.)
`Cc1nc2ncc(-c3ccc4c(c3)CN(c3nc(CN(C)C)nc5c3CC(C)(C)CC5)CCO4)cc2[nH]1` [Example 353, 1-{6,6-dimethyl-4-[7-(2-methyl-1H-imidazo[4,5-b]pyridin-6-yl)-2,3-dihydro-1,4-benzoxazepin-4(5H)-yl]-5,6,7,8-tetrahydroquinazolin-2-yl}-N,N-dimethylmethanamine]: the pIC50 is no less than 8.00. For `CNCc1nc2c(c(N3CCOc4ccc(-c5cnc6nc(C)[nH]c6c5)cc4C3)n1)CC(C)(C)CC2` [Example 354, 1-{6,6-dimethyl-4-[7-(2-methyl-1H-imidazo[4,5-b]pyridin-6-yl)-2,3-dihydro-1,4-benzoxazepin-4(5H)-yl]-5,6,7,8-tetrahydroquinazolin-2-yl}-N-methylmethanamine], the negative logarithm of the IC50 (pIC50) is no less than 8.00. Regarding `COC1Cc2nc(CN(C)C)nc(N3CCOc4ccc(-c5cnc6nc(C)[nH]c6c5)cc4C3)c2CC1(C)C` (stereo not shown) [Example 355, 1-{6,6-dimethyl-4-[7-(2-methyl-1H-imidazo[4,5-b]pyridin-6-yl)-2,3-dihydro-1,4-benzoxazepin-4(5H)-yl]-7-(methyloxy)-5,6,7,8-tetrahydroquinazolin-2-yl}-N,N-dimethylmethanamine], the pIC50 is 6.60 to 7.30. For `Cc1nc2cc(-c3ccc4c(c3)CN(c3nc(C(C)N(C)C)nc5c3CC(C)(C)CC5)CCO4)cnc2[nH]1` (stereo not shown) [Example 356, 1-{6,6-dimethyl-4-[7-(2-methyl-3H-imidazo[4,5-b]pyridin-6-yl)-2,3-dihydro-1,4-benzoxazepin-4(5H)-yl]-5,6,7,8-tetrahydroquinazolin-2-yl}-N,N-dimethylethanamine], the pIC50 was 6.60 to 7.30.

For the compound `CN(C)Cc1nc2ncc(-c3ccc4c(c3)CN(c3ncnc5c3CC(C)(C)CC5)CCO4)cc2[nH]1` [Example 357, 1-{6-[4-(6,6-dimethyl-5,6,7,8-tetrahydroquinazolin-4-yl)-2,3,4,5-tetrahydro-1,4-benzoxazepin-7-yl]-1H-imidazo[4,5-b]pyridin-2-yl}-N,N-dimethylmethanamine], the pIC50 is 6.00 to 6.60. Under `CNCc1nc2ncc(-c3ccc4c(c3)CN(c3ncnc5c3CC(C)(C)CC5)CCO4)cc2[nH]1` [Example 358, 1-{6-[4-(6,6-dimethyl-5,6,7,8-tetrahydroquinazolin-4-yl)-2,3,4,5-tetrahydro-1,4-benzoxazepin-7-yl]-1H-imidazo[4,5-b]pyridin-2-yl}-N-methylmethanamine] stands 7.30 to 8.00. Under `Cc1nc2ncc(-c3ccc4c(c3)CN(c3nc(CN(C)C)nc5ccc(F)cc35)CCO4)cc2[nH]1` [Example 359, 1-{6-fluoro-4-[7-(2-methyl-1H-imidazo[4,5-b]pyridin-6-yl)-2,3-dihydro-1,4-benzoxazepin-4(5H)-yl]quinazolin-2-yl}-N,N-dimethylmethanamine] stands 6.00 to 6.60; under `Cc1nc2ncc(-c3ccc4c(c3)CN(c3nc(CNC(C)C5CC5)nc5c3CC(C)(C)CC5)CCO4)cc2[nH]1` (stereo not shown) [Example 360, 1-cyclopropyl-N-({6,6-dimethyl-4-[7-(2-methyl-1H-imidazo[4,5-b]pyridin-6-yl)-2,3-dihydro-1,4-benzoxazepin-4(5H)-yl]-5,6,7,8-tetrahydroquinazolin-2-yl}methyl)ethanamine], 7.30 to 8.00. Regarding `CNC(=O)Nc1ccc(-c2ccc3c(c2)CN(c2nc(C)nc4cc(OC)ccc24)CCO3)cc1` [Example 361, 1-methyl-3-(4-{4-[2-methyl-7-(methyloxy)quinazolin-4-yl]-2,3,4,5-tetrahydro-1,4-benzoxazepin-7-yl}phenyl)urea], the negative logarithm of the IC50 (pIC50) is no more than 5.70.

`CNS(=O)(=O)c1cc(-c2ccc3c(c2)CN(c2ncnc(C)c2Cc2ccc(F)cc2)CCO3)cnc1N` [Example 363, 2-amino-5-(4-{5-[(4-fluorophenyl)methyl]-6-methylpyrimidin-4-yl}-2,3,4,5-tetrahydro-1,4-benzoxazepin-7-yl)-N-methylpyridine-3-sulfonamide]: the negative-log IC50 (pIC50) is 7.30 to 8.00. Under `CC(C)NS(=O)(=O)c1cc(-c2ccc3c(c2)CN(c2ncnc4c2CC(C)(C)CC4)CCO3)cnc1N` [Example 364, 2-amino-5-[4-(6,6-dimethyl-5,6,7,8-tetrahydroquinazolin-4-yl)-2,3,4,5-tetrahydro-1,4-benzoxazepin-7-yl]-N-(1-methylethyl)pyridin-3-sulfonamide] stands 7.30 to 8.00; under `CC1(C)CCc2ncnc(N3CCOc4ccc(-c5cnc(N)c(S(=O)(=O)NCC(F)(F)F)c5)cc4C3)c2C1` [Example 365, 2-amino-5-[4-(6,6-dimethyl-5,6,7,8-tetrahydroquinazolin-4-yl)-2,3,4,5-tetrahydro-1,4-benzoxazepin-7-yl]-N-(2,2,2-trifluoroethyl)pyridine-3-sulfonamide], 7.30 to 8.00; under `CC1(C)CCc2ncnc(N3CCOc4ccc(-c5cnc(N)c(S(=O)(=O)NCCF)c5)cc4C3)c2C1` [Example 366, 2-amino-5-[4-(6,6-dimethyl-5,6,7,8-tetrahydroquinazolin-4-yl)-2,3,4,5-tetrahydro-1,4-benzoxazepin-7-yl]-N-(2-fluoroethyl)pyridine-3-sulfonamide], 7.30 to 8.00.

Regarding `CC1(C)CCc2ncnc(N3CCOc4ccc(-c5cnc(N)c(S(=O)(=O)NC(C)(C)CO)c5)cc4C3)c2C1` [Example 367, 2-amino-5-[4-(6,6-dimethyl-5,6,7,8-tetrahydroquinazolin-4-yl)-2,3,4,5-tetrahydro-1,4-benzoxazepin-7-yl]-N-(2-hydroxy-1,1-dimethylethyl)pyridine-3-sulfonamide], the negative logarithm of the IC50 (pIC50) was 7.30 to 8.00. Take `CC(CO)NS(=O)(=O)c1cc(-c2ccc3c(c2)CN(c2ncnc4c2CC(C)(C)CC4)CCO3)cnc1N` (stereo not shown) [Example 368, 2-amino-5-[4-(6,6-dimethyl-5,6,7,8-tetrahydroquinazolin-4-yl)-2,3,4,5-tetrahydro-1,4-benzoxazepin-7-yl]-N-(2-hydroxy-1-methylethyl)pyridine-3-sulfonamide]: the pIC50 is 7.30 to 8.00. In the case of `CC(C)(O)CNS(=O)(=O)c1cc(-c2ccc3c(c2)CN(c2ncnc4c2CC(C)(C)CC4)CCO3)cnc1N` [Example 369, 2-amino-5-[4-(6,6-dimethyl-5,6,7,8-tetrahydroquinazolin-4-yl)-2,3,4,5-tetrahydro-1,4-benzoxazepin-7-yl]-N-(2-hydroxy-2-methylpropyl)pyridine-3-sulfonamide], the pIC50 is no less than 8.00. Turning to `CN(CCO)S(=O)(=O)c1cc(-c2ccc3c(c2)CN(c2ncnc4c2CC(C)(C)CC4)CCO3)cnc1N` [Example 370, 2-amino-5-[4-(6,6-dimethyl-5,6,7,8-tetrahydroquinazolin-4-yl)-2,3,4,5-tetrahydro-1,4-benzoxazepin-7-yl]-N-(2-hydroxyethyl)-N-methylpyridine-3-sulfonamide], the pIC50 is 7.30 to 8.00.

For the compound `CC1(C)CCc2ncnc(N3CCOc4ccc(-c5cnc(N)c(S(=O)(=O)NCCO)c5)cc4C3)c2C1` [Example 371, 2-amino-5-[4-(6,6-dimethyl-5,6,7,8-tetrahydroquinazolin-4-yl)-2,3,4,5-tetrahydro-1,4-benzoxazepin-7-yl]-N-(2-hydroxyethyl)pyridine-3-sulfonamide], the pIC50 is no less than 8.00. For `CC(O)CNS(=O)(=O)c1cc(-c2ccc3c(c2)CN(c2ncnc4c2CC(C)(C)CC4)CCO3)cnc1N` (stereo not shown) [Example 372, 2-amino-5-[4-(6,6-dimethyl-5,6,7,8-tetrahydroquinazolin-4-yl)-2,3,4,5-tetrahydro-1,4-benzoxazepin-7-yl]-N-(2-hydroxypropyl)pyridine-2-sulfonamide], the pIC50 is 7.30 to 8.00. Turning to `CC1(C)CCc2ncnc(N3CCOc4ccc(-c5cnc(N)c(S(=O)(=O)NCC(O)C(F)(F)F)c5)cc4C3)c2C1` (stereo not shown) [Example 373, 2-amino-5-[4-(6,6-dimethyl-5,6,7,8-tetrahydroquinazolin-4-yl)-2,3,4,5-tetrahydro-1,4-benzoxazepin-7-yl]-N-(3,3,3-trifluoro-2-hydroxypropyl)pyridine-3-sulfonamide], the pIC50 is no less than 8.00. `CC(C)(CO)CNS(=O)(=O)c1cc(-c2ccc3c(c2)CN(c2ncnc4c2CC(C)(C)CC4)CCO3)cnc1N` [Example 374, 2-amino-5-[4-(6,6-dimethyl-5,6,7,8-tetrahydroquinazolin-4-yl)-2,3,4,5-tetrahydro-1,4-benzoxazepin-7-yl]-N-(3-hydroxy-2,2-dimethylpropyl)pyridine-3-sulfonamide]: the pIC50 is 6.60 to 7.30. For the compound `CC1(C)CCc2ncnc(N3CCOc4ccc(-c5cnc(N)c(S(=O)(=O)NCCCO)c5)cc4C3)c2C1` [Example 375, 2-amino-5-[4-(6,6-dimethyl-5,6,7,8-tetrahydroquinazolin-4-yl)-2,3,4,5-tetrahydro-1,4-benzoxazepin-7-yl]-N-(3-hydroxypropyl)pyridine-3-sulfonamide], the negative logarithm of the IC50 (pIC50) is no less than 8.00. Regarding `CC1(C)CCc2ncnc(N3CCOc4ccc(-c5cnc(N)c(S(=O)(=O)NCC6CCCCN6)c5)cc4C3)c2C1` (stereo not shown) [Example 376, 2-amino-5-[4-(6,6-dimethyl-5,6,7,8-tetrahydroquinazolin-4-yl)-2,3,4,5-tetrahydro-1,4-benzoxazepin-7-yl]-N-(piperidin-2-ylmethyl)pyridine-3-sulfonamide], the pIC50 was 7.30 to 8.00. `CC1(C)CCc2ncnc(N3CCOc4ccc(-c5cnc(N)c(S(=O)(=O)NCC6CCCNC6)c5)cc4C3)c2C1` (stereo not shown) [Example 377, 2-amino-5-[4-(6,6-dimethyl-5,6,7,8-tetrahydroquinazolin-4-yl)-2,3,4,5-tetrahydro-1,4-benzoxazepin-7-yl]-N-(piperidin-3-ylmethyl)pyridine-3-sulfonamide]: the pIC50 is 6.60 to 7.30. Consider `CC1(C)CCc2ncnc(N3CCOc4ccc(-c5cnc(N)c(S(=O)(=O)NCC6CCNCC6)c5)cc4C3)c2C1` [Example 378, 2-amino-5-[4-(6,6-dimethyl-5,6,7,8-tetrahydroquinazolin-4-yl)-2,3,4,5-tetrahydro-1,4-benzoxazepin-7-yl]-N-(piperidin-4-ylmethyl)pyridine-3-sulfonamide], for which the pIC50 is 6.60 to 7.30.

Usually pIC50 stands for the negative decadic logarithm of the IC50, by convention in mol/L.
